From patent publication US20240197715A1, “PHARMACEUTICAL COMBINATIONS AND USES THEREOF” (NOVARTIS AG, priority 2022, published 2024)

Assays:
[1] = test system: SW48; assay: CellTiterGlo in vitro viability, 4-day treatment, SW48; assay type: cell-based
Excerpt: (§1) Growth inhibition %: 0-99=delayed proliferation, 100=growth arrest/stasis, 101-200=reduction in cell number/cell death.

[2] = test system: HCT116; assay: CellTiterGlo in vitro viability, 4-day treatment, HCT116; assay type: cell-based
Excerpt: as §1

[3] = biological target: WRN (Homo sapiens, UniProt Q14191); assay: WRN ATPase activity assay; assay type: biochemical; details: assay of WO2022/249060
WRN, sequence (Q14191 whole entry): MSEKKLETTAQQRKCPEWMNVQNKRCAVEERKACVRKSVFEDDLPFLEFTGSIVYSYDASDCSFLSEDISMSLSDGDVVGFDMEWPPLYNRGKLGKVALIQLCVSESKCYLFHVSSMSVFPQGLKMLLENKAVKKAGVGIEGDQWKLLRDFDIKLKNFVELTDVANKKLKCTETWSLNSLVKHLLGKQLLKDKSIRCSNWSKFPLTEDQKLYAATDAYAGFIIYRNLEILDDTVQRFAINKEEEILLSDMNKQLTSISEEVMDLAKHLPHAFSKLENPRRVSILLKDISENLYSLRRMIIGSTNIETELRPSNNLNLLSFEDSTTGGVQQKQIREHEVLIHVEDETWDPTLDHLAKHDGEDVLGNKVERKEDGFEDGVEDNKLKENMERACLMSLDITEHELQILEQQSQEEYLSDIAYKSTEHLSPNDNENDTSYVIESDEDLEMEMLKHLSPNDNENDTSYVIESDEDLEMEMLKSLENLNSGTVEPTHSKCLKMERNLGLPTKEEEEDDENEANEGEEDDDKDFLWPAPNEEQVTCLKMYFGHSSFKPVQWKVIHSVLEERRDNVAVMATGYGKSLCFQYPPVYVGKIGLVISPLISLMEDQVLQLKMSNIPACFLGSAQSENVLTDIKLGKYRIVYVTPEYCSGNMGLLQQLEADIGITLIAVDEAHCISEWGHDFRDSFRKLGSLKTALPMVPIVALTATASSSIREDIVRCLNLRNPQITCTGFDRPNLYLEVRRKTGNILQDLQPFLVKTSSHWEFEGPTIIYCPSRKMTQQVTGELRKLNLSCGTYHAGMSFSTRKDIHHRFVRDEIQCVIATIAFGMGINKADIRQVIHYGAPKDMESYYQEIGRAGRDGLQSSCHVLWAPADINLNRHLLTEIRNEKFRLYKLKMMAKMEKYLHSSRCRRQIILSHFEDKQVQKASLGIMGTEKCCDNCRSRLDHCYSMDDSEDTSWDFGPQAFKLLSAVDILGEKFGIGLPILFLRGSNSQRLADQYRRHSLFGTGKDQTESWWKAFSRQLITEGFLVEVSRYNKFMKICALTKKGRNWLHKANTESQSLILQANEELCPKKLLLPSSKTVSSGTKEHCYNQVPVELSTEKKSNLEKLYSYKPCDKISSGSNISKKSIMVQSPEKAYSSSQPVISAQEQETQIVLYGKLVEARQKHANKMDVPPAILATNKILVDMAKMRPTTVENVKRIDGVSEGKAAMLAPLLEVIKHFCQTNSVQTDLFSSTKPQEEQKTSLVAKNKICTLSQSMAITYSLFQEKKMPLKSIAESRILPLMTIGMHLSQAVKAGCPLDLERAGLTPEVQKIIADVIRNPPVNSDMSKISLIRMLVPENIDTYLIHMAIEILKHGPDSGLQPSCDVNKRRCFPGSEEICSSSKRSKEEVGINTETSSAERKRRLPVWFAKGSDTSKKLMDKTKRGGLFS
Excerpt: (§2) According to the assays disclosed in the application PCT/IB2022/054850 published as WO2022/249060, which is hereby incorporated by reference, the compounds were active as shown in Table X

[4] = test system: SW48; assay: Proliferation assay SW48; assay type: cell-based; details: Homo sapiens, assay of WO2022/249060
Excerpt: as §2

[5] = test system: DLD1-WRN-KO; assay: Proliferation assay DLD1-WRN-KO; assay type: cell-based; details: assay of WO2022/249060
Excerpt: as §2

[6] = test system: SW48 colorectal carcinoma cells; assay: SW48 xenograft efficacy in nude mice; assay type: in vivo; details: Example 12; trametinib 0.3 mg/kg p.o. qd; BRAF WT SW48
Description: All animals were allowed to adapt for 7 days and housed in a pathogen-controlled environment (5 mice/Type III cage) with access to food and water ad libitum and were identified with transponders.
5.0×10^6 SW48 colorectal carcinoma cells were implanted subcutaneously in nude mice (Charles River, Germany). Treatment was initiated when tumors reached 150-200 mm^3 volume. Efficacy studies and tumor response were measured as above.

| Compound | proliferation of SW48 cells, single agent [1] | also measured |
| --- | --- | --- |
| O=c1[nH]cc(F)c(=O)[nH]1 [5-fluorouracil] | inhibited | – |
| C[C@@]1(CO)[C@H](O)CC[C@@]2(C)[C@H]1CC[C@H]1C[C@@H]3C[C@@]12CC[C@]3(O)CO [Aphidicolin, aphidicolin] | inhibited | – |
| CC[C@@]1(O)C(=O)OCc2c1cc1n(c2=O)Cc2cc3ccccc3nc2-1 [Camptothecin, camptothecin] | inhibited | – |
| CCc1c(N2CCN(C(=O)c3ncccc3O)CC2)c(=O)n2nc(C3=CCOCC3)nc2n1CC(=O)Nc1ccc(C(F)(F)F)cc1C [Compound B] | inhibited | proliferation of HCT116 cells, single agent [2]: inhibited |
| COc1cccc2c1C(=O)c1c(O)c3c(c(O)c1C2=O)C[C@@](O)(C(=O)CO)C[C@@H]3O[C@H]1C[C@H](N)[C@H](O)[C@H](C)O1 [Doxorubicin, doxorubicin] | inhibited | proliferation of HCT116 cells, single agent [2]: inhibited |
| Nc1ccn([C@@H]2O[C@H](CO)[C@@H](O)C2(F)F)c(=O)n1 [Gemcitabin, gemcitabine] | inhibited | – |
| COc1ncc(-c2nc3c(n2C(C)C)[C@H](c2ccc(Cl)cc2)N(c2cc(Cl)cn(C)c2=O)C3=O)c(OC)n1 [HDM201] | to some extent | – |
| C[C@@H]1CN(CC(=O)Nc2ccc3c(c2)Cc2cccc(-c4cc(=O)cc(N5CCOCC5)o4)c2S3)C[C@H](C)O1 [KU-60019] | inhibited | – |
| O=c1cc(N2CCOCC2)oc2c(-c3cccc4c3sc3ccccc34)cccc12 [NU7441 (KU-57788)] | inhibited | – |
| CCc1nc2c(NC(C)(C)C)nc(Nc3ccc4nc(OCCN5CCOCC5)ccc4c3)nc2[nH]1 [QAP1] | inhibited | – |
| CCc1c(N2CCN(C(=O)c3ncccc3O)CC2)c(=O)n2nc(C3=CCN(C(=O)CCC(=O)N[C@H](C(=O)N4C[C@H](O)C[C@H]4C(=O)N[C@@H](C)c4ccc(-c5scnc5C)cc4)C(C)(C)C)CC3)nc2n1CC(=O)Nc1ccc(C(F)(F)F)cc1C [X, (2S,4R)-1-((S)-2-(4-(4-(5-ethyl-6-(4-(3-hydroxypicolinoyl)piperazin-1-yl)-4-(2-((2-methyl-4-(trifluoromethyl)phenyl)amino)-2-oxoethyl)-7-oxo-4,7-dihydro-[1,2,4]triazolo[1,5-a]pyrimidin-2-yl)-3,6-dihydropyridin-1(2H)-yl)-4-oxobutanamido)-3,3-dimethylbutanoyl)-4-hydroxy-N—((S)-1-(4-(4-methylthiazol-5-yl)phenyl)ethyl)pyrrolidine-2-carboxamide] | – | IC50 [3]: 160 nM; GI50 [4]: 3840 nM; GI50 [5]: > 10 µM |
| CCc1c(N2CCN(C(=O)c3ncccc3O)CC2)c(=O)n2nc(C3=CCN(C(=O)[C@H](CC(C)C)NC(=O)[C@@H](O)[C@H](N)Cc4ccccc4)CC3)nc2n1CC(=O)Nc1ccc(C(F)(F)F)cc1C [Y, (2S,3R)-3-amino-N—((S)-1-(4-(5-ethyl-6-(4-(3-hydroxypicolinoyl)piperazin-1-yl)-4-(2-((2-methyl-4-(trifluoromethyl)phenyl)amino)-2-oxoethyl)-7-oxo-4,7-dihydro-[1,2,4]triazolo[1,5-a]pyrimidin-2-yl)-3,6-dihydropyridin-1(2H)-yl)-4-methyl-1-oxopentan-2-yl)-2-hydroxy-4-phenylbutanamide] | – | IC50 [3]: 140 nM; GI50 [4]: 1190 nM; GI50 [5]: > 10 µM |
| CCc1c(N2CCN(C(=O)c3ncccc3O)CC2)c(=O)n2nc(C3=CCN(C(=O)CCCCCOc4ccc5c(c4)C(=O)N(C4CCC(=O)NC4=O)C5)CC3)nc2n1CC(=O)Nc1ccc(C(F)(F)F)cc1C (stereo not drawn) [Z, 2-(2-(1-(6-((2-(2,6-dioxopiperidin-3-yl)-3-oxoisoindolin-5-yl)oxy)hexanoyl)-1,2,3,6-tetrahydropyridin-4-yl)-5-ethyl-6-(4-(3-hydroxypicolinoyl)piperazin-1-yl)-7-oxo-[1,2,4]triazolo[1,5-a]pyrimidin-4(7H)-yl)-N-(2-methyl-4-(trifluoromethyl)phenyl)acetamide] | – | IC50 [3]: 90 nM; GI50 [4]: 1310 nM; GI50 [5]: > 10 µM |
| N.N.[Cl][Pt][Cl] [cisplatin] | inhibited | – |
| CC(=O)Nc1cccc(-n2c(=O)n(C3CC3)c(=O)c3c(Nc4ccc(I)cc4F)n(C)c(=O)c(C)c32)c1 [trametinib] | – | effect on tumor growth [6]: no effect |
| bleomycin | inhibited | – |
